Test results as given in patent publication US7815946B1, “Anti-diabetic and cholesterol lowering preparation from fenugreek seeds” (priority 2001, dated 2010).

Legend:
diabetic rabbits [1] = assay: Comparison of Menthi, trigonelline and tolbutamide on glucose tolerance; type: in vivo, rabbit; conditions: 100 mg/kg/day for 3 days
Protocol: The antidiabetic activity of GII (Menthi) and the alkaloid trigonelline, which can be isolated from fenugreek seeds, were compared. Diabetic rabbits were administered the same dose (100 mg/kg/day) daily for 3 days. The activity of these two was also compared with a standard drug tolbutamide all at the same dosage schedule of 100 mg/Kg/day for 3 days.

[2] = reported by Mishinsky; cited from earlier work
diabetic rabbits [3] = conditions: cited from earlier work

| Compound | % Decrease in Blood Glucose Level at 2.5 Hours in GTT (diabetic rabbits [1]) [%] | hypoglycemic activity [2] | blood glucose during GTT (diabetic rabbits [3]) |
| --- | --- | --- | --- |
| CCCCNC(=O)NS(=O)(=O)c1ccc(C)cc1 [Tolbutamide, tolbutamide] | 25 | – | – |
| C[n+]1cccc(C(=O)[O-])c1 [Trigonelline, trigonelline] | 16 | only mild and transient hypoglycemic activity | – |
| fenugreekine | – | – | could not lower blood glucose |
